Results on 2 compounds are retold here after paper PMC12454639, “Direct disassembly of α-syn preformed fibrils into α-syn monomers by an all-D-peptide” (NPJ Parkinson's Disease, 2025).

Structures are written as SMILES. “Also recorded” adds a separate entry of the source. Square brackets hold non-standard residues; d marks the D form. Peptide text beside a SMILES is read from it.

Holding throughout (type): biochemical
For one assay, the system named is α-syn monomer. The experiment in a line: De novo ThT aggregation assay (10 µM α-syn). To be noted: 37 °C, n = 5. How it is done:
The Thioflavin T (ThT) assay is commonly used for the visualization of α-syn fibrilization, since the dye ThT is able to bind to the amyloidogenic cross-β-sheet proportions of fibril structures. Recombinant α-syn was thawed on ice and centrifuged for 30 min at 21,000 × g and 4 °C. The concentration of the supernatant was determined as described previously. Lyophilized D-peptides were thawed at RT for 1 h and dissolved in 500 µl PBS pH 7.4. After centrifugation for 30 min at 21,000 × g the supernatant concentration was determined by UV–vis using the corresponding extinction coefficient at A280. […] ThT fluorescence was monitored with bottom optics at λex = 448 nm and λem = 482 nm in a fluorescence plate reader with orbital averaging on 3 mm (Clariostar or Polarstar Optima, BMG labtech, GE). […]
ThT assay was used for different purposes. […] Lag-time and t½ were calculated as described previously. […]
ThT fluorescence progression was measured in a 96-well non-binding half-area plate (Corning, USA) with a FLUOStar platereader (BMG labtech, GE) at λex = 448 nm and λem = 482 nm. […] 10 µM α-syn monomer was incubated with 5, 10 and 20 µM peptide at 37 °C, adding one borosilicate glass bead per well (d = 3.0 mm, Hilgenberg, GE) with continuous orbital shaking at 300 rpm in between reads. […]
For each fit, x ½, lag-time and steady state response was determined in order to calculate their mean value for each condition. […]

The test system of the next assay is α-syn (1–108). Description: De novo ThT aggregation of 1-108 truncated α-syn. To be noted: 25 µM 1-108 α-syn, equimolar peptide. On the procedure: ThT assay was used for different purposes. […] Lag-time and t½ were calculated as described previously. […] Measurements were taken every 5 min (n = 3).
Aggregation curves were fitted with a symmetric Boltzmann fit and the steady state signal was normalized to 1.

For assay [1], the system named is α-synuclein monomer seeded with small α-syn PFF. Description: CD spectroscopy of the seeded aggregation assay. To be noted: 30 µM SVD-1a, 500 nM PFF, 15 µM α-syn monomer, PBS pH 7.4, 37 °C, 24 h. How it is done:
Far-UV circular dichroism (CD) data were collected using a Jasco J-1100 spectropolarimeter (Jasco, GE). 350 µl samples were pooled and loaded into a high precision quartz cuvette with a path length of 1 mm (Hellma group, GE). A scan speed of 20 nm/min with five accumulations per sample was performed using far UV wavelengths from 260 to 190 nm. Baseline was corrected by subtracting measurements of the reference sample only.
Supplementary Fig. 13: Analysis of the seeded aggregation assay in the presence and absence of SVD-1a using circular dichroism (CD) spectroscopy. Small α-syn PFF (500 nM) were incubated in PBS (pH 7.4) at 37 °C under quiescent conditions for 24 hours, either alone or in the presence of 15 µM α-synuclein monomer and/or 30 µM SVD-1a. For each condition and time point, three replicates (each 120 µl) were pooled and analyzed by CD spectroscopy at 0, 2, 8, and 24 hours. Far-UV ellipticity was measured in a quartz cuvette (path length = 10 mm) using a J-1100 CD spectrometer (Jasco, GE). […] (D) Co-incubation of 500 nM α-synuclein PFFs with 15 µM α-synuclein monomer induced a structural transition towards β-sheet formation, as reflected in the CD spectrum (referenced to spectrum in (A)).

On to `CC[C@@H](C)[C@@H](NC(=O)[C@@H](Cc1c[nH]cn1)NC(=O)[C@@H](CCC(=O)O)NC(=O)[C@@H](CCC(N)=O)NC(=O)[C@@H](Cc1c[nH]c2ccccc12)NC(=O)[C@@H](Cc1ccc(O)cc1)NC(=O)[C@H](NC(=O)[C@@H](CCC(=O)O)NC(=O)[C@@H](Cc1c[nH]cn1)NC(=O)[C@H](NC(=O)[C@H]1CCCN1C(=O)[C@@H](CCSC)NC(=O)[C@H](N)CCCCN)[C@H](C)O)[C@H](C)O)C(=O)N[C@H](Cc1c[nH]c2ccccc12)C(=O)N[C@H](Cc1c[nH]cn1)C(=O)N[C@H](C)C(N)=O` [SVD-1] (H-[dK][dM][dP][dT][dH][dE][dT][dY][dW][dQ][dE][dH][dI][dW][dH][dA]-NH2), for which the “inhibition of de novo aggregation” value in the assay with α-syn monomer (10 µM α-syn, 5, 10 and 20 µM peptide, glass bead, continuous shaking 300 rpm) is “concentration-dependent delay of aggregation onset as well as by a reduction of steady state levels; also recorded: inhibits primary nucleation of α-syn”. For the same compound, the “inhibition of α-syn (1–108) aggregation” value in the assay with α-syn (1–108) is “delay of 1- 108 truncated α-syn aggregation”.
`CC[C@@H](C)[C@@H](NC(=O)[C@@H](Cc1c[nH]cn1)NC(=O)[C@@H](CCC(=O)O)NC(=O)[C@@H](CCC(N)=O)NC(=O)[C@@H](Cc1c[nH]c2ccccc12)NC(=O)[C@@H](Cc1ccc(O)cc1)NC(=O)[C@H](NC(=O)[C@@H](CCC(=O)O)NC(=O)[C@@H](Cc1c[nH]cn1)NC(=O)[C@H](NC(=O)[C@H]1CCCN1C(=O)[C@@H](CC(C)C)NC(=O)[C@H](N)CCCNC(=N)N)[C@H](C)O)[C@H](C)O)C(=O)N[C@H](Cc1c[nH]c2ccccc12)C(=O)N[C@H](Cc1c[nH]cn1)C(=O)N[C@H](C)C(=O)N[C@H](CCCNC(=N)N)C(=O)N[C@H](CCCNC(=N)N)C(=O)N[C@H](CCCNC(=N)N)C(=O)N[C@H](CCCNC(=N)N)C(=O)N[C@H](CCCNC(=N)N)C(N)=O` [SVD-1a] (H-[dR][dL][dP][dT][dH][dE][dT][dY][dW][dQ][dE][dH][dI][dW][dH][dA][dR][dR][dR][dR][dR]-NH2): in the assay on α-syn monomer (10 µM α-syn, 20 µM peptide), the “inhibition of de novo aggregation at twofold molar excess” value is recorded as “completely inhibited”. The “α-syn secondary structure under seeded conditions” value in assay [1] was “stabilized the α-synuclein monomer in its random coil conformation throughout the incubation period”. Further, the “inhibition of α-syn (1–108) aggregation” value in the assay on α-syn (1–108) is reported as “delay of 1- 108 truncated α-syn aggregation”.
